# Measurements published in ChEMBL document CHEMBL4138123, “Design, synthesis and biological evaluation of novel pyrazolochalcones as potential modulators of PI3K/Akt/mTOR pathway and inducers of apoptosis in breast cancer cells” (Eur J Med Chem, 2017).
# Key:
# Format in all cases: functional
# A549 [1] = experiment: Cytotoxicity against human A549/ATCC cells assessed as cell growth at 10 uM after 48 hrs by sulforhodamine B assay relative to control; settings: A549, 48 h, read-out: Activity
# HCC 2998 = experiment: Cytotoxicity against human HCC2998 cells assessed as cell growth at 100 uM after 48 hrs by sulforhodamine B assay relative to control; settings: HCC 2998, 48 h, read-out: Activity
# ACHN [2] = experiment: Cytotoxicity against human ACHN cells assessed as cell growth at 100 uM after 48 hrs by sulforhodamine B assay relative to control; settings: read-out: Activity
# MCF7 [3] = experiment: Cytotoxicity against human MCF7 cells assessed as cell growth at 10 uM after 48 hrs by sulforhodamine B assay relative to control; settings: MCF7, 48 h, read-out: Activity
# MDA-MB-468 [4] = experiment: Cytotoxicity against human MDA-MB-468 cells assessed as growth inhibition after 48 hrs by sulforhodamine B assay; settings: MDA-MB-468, 48 h
# NCI/ADR-RES = experiment: Cytotoxicity against human NCI/ADR-RES cells assessed as cell growth at 0.1 uM after 48 hrs by sulforhodamine B assay relative to control; settings: read-out: Activity
# SR = experiment: Cytotoxicity against human SR cells assessed as cell growth at 0.01 uM after 48 hrs by sulforhodamine B assay relative to control; settings: read-out: Activity
# U-251 = experiment: Cytotoxicity against human U251 cells assessed as cell growth at 1 uM after 48 hrs by sulforhodamine B assay relative to control; settings: U-251, 48 h, read-out: Activity
# MDA-MB-468 [5] = experiment: Cytotoxicity against human MDA-MB-468 cells assessed as cell growth at 0.1 uM after 48 hrs by sulforhodamine B assay relative to control; settings: MDA-MB-468, 48 h, read-out: Activity
# OVCAR-4 [6] = experiment: Cytotoxicity against human OVCAR4 cells assessed as cell growth at 10 uM after 48 hrs by sulforhodamine B assay relative to control; settings: OVCAR-4, 48 h, read-out: Activity
# BT-549 [7] = experiment: Cytotoxicity against human BT549 cells assessed as cell growth at 100 uM after 48 hrs by sulforhodamine B assay relative to control; settings: BT-549, 48 h, read-out: Activity
# T47D [8] = experiment: Cytotoxicity against human T47D cells assessed as cell growth at 10 uM after 48 hrs by sulforhodamine B assay relative to control; settings: read-out: Activity
# HT-29 = experiment: Cytotoxicity against human HT-29 cells assessed as growth inhibition after 48 hrs by sulforhodamine B assay; settings: HT-29, 48 h
# SNB-19 = experiment: Cytotoxicity against human SNB19 cells assessed as cell growth at 0.01 uM after 48 hrs by sulforhodamine B assay relative to control; settings: SNB-19, 48 h, read-out: Activity
# MOLT-4 = experiment: Cytotoxicity against human MOLT4 cells assessed as cell growth at 0.1 uM after 48 hrs by sulforhodamine B assay relative to control; settings: MOLT-4, 48 h, read-out: Activity
# NCI-H226 [9] = experiment: Cytotoxicity against human NCI-H226 cells assessed as cell growth at 1 uM after 48 hrs by sulforhodamine B assay relative to control; settings: NCI-H226, 48 h, read-out: Activity
# HOP-62 = experiment: Cytotoxicity against human HOP62 cells assessed as cell growth at 100 uM after 48 hrs by sulforhodamine B assay relative to control; settings: HOP-62, 48 h, read-out: Activity
# PC-3 = experiment: Cytotoxicity against human PC3 cells assessed as cell growth at 100 uM after 48 hrs by sulforhodamine B assay relative to control; settings: PC-3, 48 h, read-out: Activity
# OVCAR-5 = experiment: Cytotoxicity against human OVCAR5 cells assessed as cell growth at 0.1 uM after 48 hrs by sulforhodamine B assay relative to control; settings: OVCAR-5, 48 h, read-out: Activity
# Hs-578T = experiment: Cytotoxicity against human Hs 578T cells assessed as cell growth at 100 uM after 48 hrs by sulforhodamine B assay relative to control; settings: read-out: Activity
# MCF7 [10] = experiment: Cytotoxicity against human MCF7 cells assessed as cell growth at 100 uM after 48 hrs by sulforhodamine B assay relative to control; settings: MCF7, 48 h, read-out: Activity
# NCI-H522 [11] = experiment: Cytotoxicity against human NCI-H522 cells assessed as cell growth at 100 uM after 48 hrs by sulforhodamine B assay relative to control; settings: NCI-H522, 48 h, read-out: Activity
# RXF 393 = experiment: Cytotoxicity against human RXF393 cells assessed as cell growth at 0.01 uM after 48 hrs by sulforhodamine B assay relative to control; settings: RXF 393, 48 h, read-out: Activity
# OVCAR-4 [12] = experiment: Cytotoxicity against human OVCAR4 cells assessed as cell growth at 0.1 uM after 48 hrs by sulforhodamine B assay relative to control; settings: OVCAR-4, 48 h, read-out: Activity
# SK-MEL-5 = experiment: Cytotoxicity against human SK-MEL-5 cells assessed as cell growth at 10 uM after 48 hrs by sulforhodamine B assay relative to control; settings: SK-MEL-5, 48 h, read-out: Activity
# A498 = experiment: Cytotoxicity against human A498 cells assessed as growth inhibition after 48 hrs by sulforhodamine B assay; settings: A498, 48 h
# BT-549 [13] = experiment: Cytotoxicity against human BT549 cells assessed as growth inhibition after 48 hrs by sulforhodamine B assay; settings: BT-549, 48 h
# ACHN [14] = experiment: Cytotoxicity against human ACHN cells assessed as cell growth at 0.1 uM after 48 hrs by sulforhodamine B assay relative to control; settings: read-out: Activity
# A549 [15] = experiment: Cytotoxicity against human A549/ATCC cells assessed as cell growth at 100 uM after 48 hrs by sulforhodamine B assay relative to control; settings: A549, 48 h, read-out: Activity
# Malme-3M = experiment: Cytotoxicity against human MALME-3M cells assessed as cell growth at 10 uM after 48 hrs by sulforhodamine B assay relative to control; settings: read-out: Activity
# T47D [16] = experiment: Cytotoxicity against human T47D cells assessed as cell growth at 100 uM after 48 hrs by sulforhodamine B assay relative to control; settings: read-out: Activity
# NCI-H522 [17] = experiment: Cytotoxicity against human NCI-H522 cells assessed as growth inhibition after 48 hrs by sulforhodamine B assay; settings: NCI-H522, 48 h
# NCI-H460 = experiment: Cytotoxicity against human NCI-H460 cells assessed as cell growth at 0.01 uM after 48 hrs by sulforhodamine B assay relative to control; settings: NCI-H460, 48 h, read-out: Activity
# NCI-H226 [18] = experiment: Cytotoxicity against human NCI-H226 cells assessed as cell growth at 0.1 uM after 48 hrs by sulforhodamine B assay relative to control; settings: NCI-H226, 48 h, read-out: Activity
# ACHN [19] = experiment: Cytotoxicity against human ACHN cells assessed as cell growth at 1 uM after 48 hrs by sulforhodamine B assay relative to control; settings: read-out: Activity
# BT-549 [20] = experiment: Cytotoxicity against human BT549 cells assessed as cell growth at 1 uM after 48 hrs by sulforhodamine B assay relative to control; settings: BT-549, 48 h, read-out: Activity
smiles,measurement,setting,value
COc1ccc(-c2cc(/C=C/C(=O)c3ccc(N)cc3)[nH]n2)cc1,growth at 10 µM,A549 [1],1%
same,growth at 100 µM,HCC 2998,-93%
same,growth at 100 µM,ACHN [2],-73%
same,growth at 10 µM,MCF7 [3],-30%
same,GI50,MDA-MB-468 [4],0.43 µM
same,LC50,MDA-MB-468 [4],7.45 µM
same,TGI,MDA-MB-468 [4],2.09 µM
same,growth at 0.1 µM,NCI/ADR-RES,99%
same,growth at 0.01 µM,SR,94%
same,growth at 1 µM,U-251,65%
same,growth at 0.1 µM,MDA-MB-468 [5],86%
same,growth at 10 µM,OVCAR-4 [6],-6%
same,growth at 100 µM,BT-549 [7],-61%
same,growth at 10 µM,T47D [8],-1%
same,GI50,HT-29,2.75 µM
same,LC50,HT-29,74.1 µM
same,TGI,HT-29,8.11 µM
same,growth at 0.01 µM,SNB-19,92%
same,growth at 0.1 µM,MOLT-4,98%
same,growth at 1 µM,NCI-H226 [9],86%
same,growth at 100 µM,HOP-62,-60%
same,growth at 100 µM,PC-3,-83%
same,growth at 0.1 µM,OVCAR-5,95%
same,growth at 100 µM,Hs-578T,-35%
same,growth at 100 µM,MCF7 [10],-68%
same,growth at 100 µM,NCI-H522 [11],-75%
same,growth at 0.01 µM,RXF 393,95%
same,growth at 0.1 µM,OVCAR-4 [12],105%
same,growth at 10 µM,SK-MEL-5,-3%
same,GI50,A498,2.03 µM
same,LC50,A498,15.4 µM
same,TGI,A498,4.95 µM
same,GI50,BT-549 [13],1.74 µM
same,LC50 (concentration killing 50% of cells),BT-549 [13],36.3 µM
same,TGI,BT-549 [13],4.78 µM
same,growth at 0.1 µM,ACHN [14],105%
same,growth at 100 µM,A549 [15],-75%
same,growth at 10 µM,Malme-3M,-23%
same,growth at 100 µM,T47D [16],-54%
same,GI50,NCI-H522 [17],1.21 µM
same,LC50,NCI-H522 [17],7.03 µM
same,TGI,NCI-H522 [17],2.91 µM
same,growth at 0.01 µM,NCI-H460,101%
same,growth at 0.1 µM,NCI-H226 [18],84%
same,growth at 1 µM,ACHN [19],71%
same,growth at 1 µM,BT-549 [20],77%
COc1cc(C(=O)/C=C/c2cc(-c3ccc4c(c3)OCO4)n[nH]2)cc(OC)c1OC,growth at 10 µM,A549 [1],-22%
same,growth at 100 µM,HCC 2998,-95%
same,growth at 100 µM,ACHN [2],-68%
same,growth at 10 µM,MCF7 [3],-62%
same,GI50,MDA-MB-468 [4],1.4 µM
same,LC50,MDA-MB-468 [4],8.78 µM
same,TGI,MDA-MB-468 [4],3.5 µM
same,growth at 0.1 µM,NCI/ADR-RES,98%
same,growth at 0.01 µM,SR,97%
same,growth at 1 µM,U-251,63%
same,growth at 0.1 µM,MDA-MB-468 [5],82%
same,growth at 10 µM,OVCAR-4 [6],-28%
same,growth at 100 µM,BT-549 [7],-77%
same,growth at 10 µM,T47D [8],-34%
same,GI50,HT-29,2.45 µM
same,LC50,HT-29,> 100 µM
same,TGI,HT-29,6.53 µM
same,growth at 0.01 µM,SNB-19,92%
same,growth at 0.1 µM,MOLT-4,98%
same,growth at 1 µM,NCI-H226 [9],70%
same,growth at 100 µM,HOP-62,-91%
same,growth at 100 µM,PC-3,-84%
same,growth at 0.1 µM,OVCAR-5,99%
same,growth at 100 µM,Hs-578T,-22%
same,growth at 100 µM,MCF7 [10],-69%
same,growth at 100 µM,NCI-H522 [11],-94%
same,growth at 0.01 µM,RXF 393,93%
same,growth at 0.1 µM,OVCAR-4 [12],94%
same,growth at 10 µM,SK-MEL-5,14%
same,GI50,A498,1.75 µM
same,LC50,A498,15.3 µM
same,TGI,A498,4.65 µM
same,GI50,BT-549 [13],2.02 µM
same,LC50 (concentration killing 50% of cells),BT-549 [13],20.1 µM
same,TGI,BT-549 [13],5 µM
same,growth at 0.1 µM,ACHN [14],103%
same,growth at 100 µM,A549 [15],-80%
same,growth at 10 µM,Malme-3M,-41%
same,growth at 100 µM,T47D [16],-87%
same,GI50,NCI-H522 [17],1.59 µM
same,LC50,NCI-H522 [17],7.3 µM
same,TGI,NCI-H522 [17],3.41 µM
same,growth at 0.01 µM,NCI-H460,99%
same,growth at 0.1 µM,NCI-H226 [18],93%
same,growth at 1 µM,ACHN [19],99%
same,growth at 1 µM,BT-549 [20],89%
